# According to patent US20160153032A9, “METHOD FOR PREDICTING A MANIFESTATION OF AN OUTCOME MEASURE OF A CANCER PATIENT” (Signature Diagnostics AG, priority 2013, published 2016):
# Tested on: patient derived xenografts (PDXs) of colorectal tumors
# Test: Therapy experiments in patient derived xenograft models, treated to control (T/C) ratio of tumor size
# Assay type: in vivo, NMRI: nu/nu mice
# Conditions: monotherapy, 67 PDX models
# Protocol: Transplantation of 239 human, primary colorectal tumors of patients with colorectal cancer of all four UICC stages was performed onto nude mice. […] For each drug and each of the 67 xenograft models, five mice were treated in addition to five control animals (335 animals plus 335 controls per drug). At the end of the therapy experiment, the median diameter of the tumors (C) of the 5 control animals is devided by the median diameter of the five treated animals (T).
# Shortly after surgery, original colorectal cancer tumor pieces were shipped in gentamicin containing RPMI-1640 medium to the mouse facility. After arrival at the mouse facilities they were transplanted onto immunodeficient mice and were further passaged until a stably grown tumor xenografts has developed.
# Surgical colorectal tumor samples were cut into pieces of 3 to 4 mm and transplanted within 30 min s.c. to 3 to 6 immunodeficient NOD/SCID mice (Taconic); the gender of the mice was chosen according to the donor patient. Additional tissue samples were immediately snap-frozen and stored at −80° C. for genetic, genomic, and protein analyses. […] Mice were observed daily for tumor growth. At a size of about 1 cm3, tumors were removed and passaged to naive NMRI: nu/nu mice (Charles River) for chemosensitivity testing. Tumors were passaged no more than 10 times. Numerous samples from early passages were stored in the tissue bank in liquid nitrogen and used for further experiments. […] All xenografts as well as the corresponding primary tumors were subjected to histological evaluation using snap-frozen, haematoxylin-eosin-stained tissue sections.
# Each of the 75 tumors was transplanted onto 20 mice (5 controls and 5 for each drug).
# The chemotherapeutic response of the passagable tumors was determined in male NMRI: nu/nu mice. For that purpose, one tumor fragment each was transplanted s.c. to a number of mice. At palpable tumor size (50-100 mm^3), 6 to 8 mice each were randomized to treatment and control groups and treatment was initiated. […] Doses and schedules were chosen according to previous experience in animal experiments and represent the maximum tolerated or efficient doses. The injection volume was 0.2 ml/20 g body weight.
# Tumor size was measured in two dimensions twice weekly with a caliper-like instrument. Individual tumor volumes (V) were calculated by the formula: V=(length+[width]2)/2 and related to the values at the first day of treatment (relative tumor volume). Median treated to control (T/C) values of relative tumor volume were used for the evaluation of each treatment modality and categorized according to scores (− to ++++;). The mean tumor doubling time of each xenograft model was calculated by comparing the size between 2- and 4-fold relative tumor volumes. Statistical analyses were done with the U test (Mann and Whitney) with P<0.05. The body weight of mice was determined every 3 to 4 days and the change in body weight was taken as variable for tolerability.
substance,measurement,setting,value
Bevacizumab: humanized monoclonal antibody that binds to vascular endothelial growth factor A (VEGF-A),Nonresponder PDXs,T/C</=25 (T/C<25),56
same,Responder PDXs,"T/C</=30, tumor growth inhibited by at least 70%",13
same,Nonresponder PDXs,T/C</=30,54
same,Responder PDXs,"T/C</=35 (T/C<35), tumor growth inhibited by at least 65%",19
same,Nonresponder PDXs,T/C</=35 (T/C<35),48
